Measured values taken from US20260055079A1, “PHTHALAZINONE COMPOUNDS AS PARP7 INHIBITORS” (AZKARRA THERAPEUTICS, INC., priority 2022, published 2026).

Target: His-GST-PARP7 (Homo sapiens (Human), UniProt Q7Z3E1)
Assay: PARP7 biochemical assay
Conditions: read-out: PARP7 IC50

Sequence of His-GST-PARP7 (Q7Z3E1 whole entry): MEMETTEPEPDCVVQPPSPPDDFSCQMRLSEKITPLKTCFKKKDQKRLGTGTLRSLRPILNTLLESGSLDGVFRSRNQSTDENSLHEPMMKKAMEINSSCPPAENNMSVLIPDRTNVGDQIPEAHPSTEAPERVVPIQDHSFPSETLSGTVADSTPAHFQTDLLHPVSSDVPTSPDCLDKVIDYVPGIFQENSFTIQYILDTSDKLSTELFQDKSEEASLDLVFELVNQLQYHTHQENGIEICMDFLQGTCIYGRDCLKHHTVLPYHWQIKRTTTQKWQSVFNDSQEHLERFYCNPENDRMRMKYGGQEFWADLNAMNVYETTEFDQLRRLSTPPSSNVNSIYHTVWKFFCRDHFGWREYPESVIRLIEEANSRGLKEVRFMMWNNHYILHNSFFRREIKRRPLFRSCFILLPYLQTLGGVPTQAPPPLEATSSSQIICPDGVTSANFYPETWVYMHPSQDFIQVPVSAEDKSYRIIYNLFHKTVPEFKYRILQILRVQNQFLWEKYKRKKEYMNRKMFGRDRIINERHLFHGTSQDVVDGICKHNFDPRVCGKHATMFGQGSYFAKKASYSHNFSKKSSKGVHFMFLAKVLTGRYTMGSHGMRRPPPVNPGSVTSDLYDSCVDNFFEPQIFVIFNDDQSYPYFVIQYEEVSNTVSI

SMILES	IC50 [µM]
CN(C(=O)C1CCN1)C1CN(C(=O)c2cc(Cc3n[nH]c(=O)c4ccc(OC5CCC5)cc34)ccc2F)C1 (stereo not drawn) [Example 117, N-(1-(5-((7-cyclobutoxy-4-oxo-3,4-dihydrophthalazin-1-yl)methyl)-2-fluorobenzoyl)azetidin-3-yl)-N-methylazetidine-2-carboxamide]	0.5 to 2
CN(C(=O)CC#N)C1CN(C(=O)c2cc(Cc3n[nH]c(=O)c4ccc(OC5CCC5)cc34)ccc2F)C1 [Example 118, 2-Cyano-N-(1-(5-((7-cyclobutoxy-4-oxo-3,4-dihydrophthalazin-1-yl)methyl)-2-fluorobenzoyl)azetidin-3-yl)-N-methylacetamide]	0.5 to 2
O=C(c1cc(Cc2n[nH]c(=O)c3ccc(OC4CCC4)cc23)ccc1F)N1CC2CN(C(=O)C3CC3)CC2C1 (stereo not drawn) [Example 119, 6-Cyclobutoxy-4-(3-(5-(cyclopropanecarbonyl)octahydropyrrolo[3,4-c]pyrrole-2-carbonyl)-4-fluorobenzyl)phthalazin-1(2H)-one]	0.5 to 2
CN(c1nccc(C(F)(F)F)n1)C1CN(C(=O)c2cc(Cc3n[nH]c(=O)c4ccc(OC5CCC5)cc34)ccc2F)C1 [Example 120, 6-cyclobutoxy-4-(4-fluoro-3-(3-(methyl(4-(trifluoromethyl)pyrimidin-2-yl)amino)azetidine-1-carbonyl)benzyl) phthalazin-1(2H)-one]	0.5 to 2
CN(C(=O)C1CC1)C1CN(C(=O)c2cc(Cc3n[nH]c(=O)c4ccc(OC5CCC5)cc34)ccc2F)C1 [Example 121, N-(1-(5-((7-Cyclobutoxy-4-oxo-3,4-dihydrophthalazin-1-yl)methyl)-2-fluorobenzoyl)azetidin-3-yl)-N-methylcyclopropanecarboxamide]	0.5 to 2
CN(C(=O)C1CCO1)C1CN(C(=O)c2cc(Cc3n[nH]c(=O)c4ccc(OC5CCC5)cc34)ccc2F)C1 (stereo not drawn) [Example 122, N-(1-(5-((7-cyclobutoxy-4-oxo-3,4-dihydrophthalazin-1-yl)methyl)-2-fluorobenzoyl)azetidin-3-yl)-N-methyloxetane-2-carboxamide]	0.5 to 2
CNC(=O)c1ccnc(N(C)C2CN(C(=O)c3cc(Cc4n[nH]c(=O)c5ccc(OC6CCC6)cc45)ccc3F)C2)c1 [Example 123, 2-((1-(5-((7-cyclobutoxy-4-oxo-3,4-dihydrophthalazin-1-yl)methyl)-2-fluorobenzoyl)azetidin-3-yl)(methyl)amino)-N-methylisonicotinamide]	0.5 to 2
CN(c1cc(C#N)ccn1)C1CN(C(=O)c2cc(Cc3n[nH]c(=O)c4ccc(OC5COC5)cc34)ccc2F)C1 [Example 124, 2-((1-(2-fluoro-5-((7-(oxetan-3-yloxy)-4-oxo-3,4-dihydrophthalazin-1-yl)methyl)benzoyl)azetidin-3-yl)(methyl)amino)isonicotinonitrile]	> 2
N#Cc1cncc(N2CCN(C(=O)c3cc(Cc4n[nH]c(=O)c5ccc(OC6CCC6)cc45)ccc3F)CC2)c1 [Example 141, 5-(4-(5-((7-cyclobutoxy-4-oxo-3,4-dihydrophthalazin-1-yl)methyl)-2-fluorobenzoyl)piperazin-1-yl)nicotinonitrile]	0.05 to 0.1
N#Cc1ccc(N2CC3CCC2CN3C(=O)c2cc(Cc3n[nH]c(=O)c4ccc(OC5CCC5)cc34)ccc2F)nc1 (stereo not drawn) [Example 143, 6-(5-(5-((7-cyclobutoxy-4-oxo-3,4-dihydrophthalazin-1-yl)methyl)-2-fluorobenzoyl)-2,5-diazabicyclo[2.2.2]octan-2-yl)nicotinonitrile]	0.05 to 0.1
O=C(c1cc(Cc2n[nH]c(=O)c3ccc(OC4CCC4)cc23)ccc1F)N1CC2CCC1CN2c1ncc(C(F)(F)F)cn1 (stereo not drawn) [Example 144, 6-cyclobutoxy-4-(4-fluoro-3-(5-(5-(trifluoromethyl)pyrimidin-2-yl)-2,5-diazabicyclo[2.2.2]octane-2-carbonyl)benzyl)phthalazin-1(2H)-one]	< 0.05
O=C(c1cc(Cc2n[nH]c(=O)c3ccc(OC4CCC4)cc23)ccc1F)N1CC2CN(c3ncc(C(F)(F)F)cn3)CC2C1 (stereo not drawn) [Example 147, 6-cyclobutoxy-4-(4-fluoro-3-(5-(5-(trifluoromethyl)pyrimidin-2-yl)octahydropyrrolo[3,4-c]pyrrole-2-carbonyl)benzyl)phthalazin-1(2H)-one]	> 2
CC(F)(F)c1cnc(N2CCN(C(=O)c3cc(Cc4n[nH]c(=O)c5ccc(OC6CCC6)cc45)ccc3F)CC2)nc1 [Example 161, 6-cyclobutoxy-4-(3-(4-(5-(1,1-difluoroethyl)pyrimidin-2-yl)piperazine-1-carbonyl)-4-fluorobenzyl)phthalazin-1(2H)-one]	< 0.05
O=C(c1cc(Cc2n[nH]c(=O)c3ccc(OC4CCC4)cc23)ccc1F)N1CCn2c(nnc2C(F)F)C1 [Example 163, 6-Cyclobutoxy-4-(3-(3-(difluoromethyl)-5,6,7,8-tetrahydro-[1,2,4]triazolo[4,3-a]pyrazine-7-carbonyl)-4-fluorobenzyl)phthalazin-1(2H)-one]	< 0.05
O=C(c1cc(Cc2n[nH]c(=O)c3ccc(OC4CCC4)cc23)ccc1F)N1CCn2c(CF)nnc2C1 [Example 164, 6-Cyclobutoxy-4-(4-fluoro-3-(3-(fluoromethyl)-5,6,7,8-tetrahydro-[1,2,4]triazolo[4,3-a]pyrazine-7-carbonyl)benzyl)phthalazin-1(2H)-one]	< 0.05
COc1nnc2n1CCN(C(=O)c1cc(Cc3n[nH]c(=O)c4ccc(OC5CCC5)cc34)ccc1F)C2 [Example 165, 6-Cyclobutoxy-4-(4-fluoro-3-(3-methoxy-5,6,7,8-tetrahydro-[1,2,4]triazolo[4,3-a]pyrazine-7-carbonyl)benzyl)phthalazin-1(2H)-one]	< 0.05
O=C(c1cc(Cc2n[nH]c(=O)c3ccc(OC4CCC4)cc23)ccc1F)N1CCn2c(CO)nnc2C1 [Example 166, 6-Cyclobutoxy-4-(4-fluoro-3-(3-(hydroxymethyl)-5,6,7,8-tetrahydro-[1,2,4]triazolo[4,3-a]pyrazine-7-carbonyl)benzyl)phthalazin-1(2H)-one]	< 0.05
COCc1nnc2n1CCN(C(=O)c1cc(Cc3n[nH]c(=O)c4ccc(OC5CCC5)cc34)ccc1F)C2 [Example 167, 6-Cyclobutoxy-4-(4-fluoro-3-(3-(methoxymethyl)-5,6,7,8-tetrahydro-[1,2,4]triazolo[4,3-a]pyrazine-7-carbonyl)benzyl)phthalazin-1(2H)-one]	< 0.05
O=C(c1cccc(Cc2n[nH]c(=O)c3ccc(OC4CCC4)cc23)c1)N1CCN(c2ncc(C(F)(F)F)cn2)CC1 [Example 170, 6-cyclobutoxy-4-(3-(4-(5-(trifluoromethyl)pyrimidin-2-yl)piperazine-1-carbonyl)benzyl)phthalazin-1(2H)-one]	< 0.05
O=C(c1cccc(Cc2n[nH]c(=O)c3ccc(OC4CCC4)cc23)c1Cl)N1CCN(c2ncc(C(F)(F)F)cn2)CC1 [Example 171, 4-(2-Chloro-3-(4-(5-(trifluoromethyl)pyrimidin-2-yl)piperazine-1-carbonyl)benzyl)-6-cyclobutoxyphthalazin-1(2H)-one]	0.05 to 0.1
O=C(c1ccc(Cc2n[nH]c(=O)c3ccc(OC4CCC4)cc23)cc1F)N1CCN(c2ncc(C(F)(F)F)cn2)CC1 [Example 172, 6-Cyclobutoxy-4-(3-fluoro-4-(4-(5-(trifluoromethyl)pyrimidin-2-yl)piperazine-1-carbonyl)benzyl)phthalazin-1(2H)-one]	> 2
O=C(c1ccc(Cl)c(Cc2n[nH]c(=O)c3ccc(OC4CCC4)cc23)c1)N1CCN(c2ncc(C(F)(F)F)cn2)CC1 [Example 173, 4-(2-Chloro-5-(4-(5-(trifluoromethyl)pyrimidin-2-yl)piperazine-1-carbonyl)benzyl)-6-cyclobutoxyphthalazin-1(2H)-one]	0.5 to 2
O=C(c1cc(Cl)cc(Cc2n[nH]c(=O)c3ccc(OC4CCC4)cc23)c1)N1CCN(c2ncc(C(F)(F)F)cn2)CC1 [Example 174, 4-(3-chloro-5-(4-(5-(trifluoromethyl)pyrimidin-2-yl)piperazine-1-carbonyl)benzyl)-6-cyclobutoxyphthalazin-1(2H)-one]	< 0.05
N#Cc1ccnc(N2CCN(C(=O)c3cc(Cc4n[nH]c(=O)c5ccc(OC6CCC6)cc45)cc4c3OCC4)CC2)c1 [Example 175, 2-(4-(5-((7-cyclobutoxy-4-oxo-3,4-dihydrophthalazin-1-yl)methyl)-2,3-dihydrobenzofuran-7-carbonyl)piperazin-1-yl)isonicotinonitrile]	0.05 to 0.1
N#Cc1ccc(N2CCN(C(=O)c3cc(Cc4n[nH]c(=O)c5ccc(CC(F)(F)F)cc45)ccc3F)CC2)nc1 [Example 183, 6-(4-(2-Fluoro-5-((4-oxo-7-(2,2,2-trifluoroethyl)-3,4-dihydrophthalazin-1-yl)methyl)benzoyl)piperazin-1-yl)nicotinonitrile]	< 0.05
CN1CCN(C(=O)c2ccc(Cc3n[nH]c(=O)c4c(F)cccc34)cc2)CC1 [Example 186, 8-Fluoro-4-(4-(4-methylpiperazine-1-carbonyl)benzyl)phthalazin-1(2H)-one]	> 2
CN(c1cc(C#N)ccn1)C1CN(S(=O)(=O)c2cc(Cc3n[nH]c(=O)c4ccc(OC5CCC5)cc34)ccc2F)C1 [Example 189, 2-((1-((5-((7-cyclobutoxy-4-oxo-3,4-dihydrophthalazin-1-yl)methyl)-2-fluorophenyl)sulfonyl)azetidin-3-yl)(methyl)amino)isonicotinonitrile]	0.5 to 2
CC#Cc1ccc2c(=O)[nH]nc(C(C)CCCC(=O)N3CCN(c4ncc(C(F)(F)F)cn4)CC3)c2c1 (stereo not drawn) [Example 195, 4-(6-Oxo-6-(4-(5-(trifluoromethyl)pyrimidin-2-yl)piperazin-1-yl)hexan-2-yl)-6-(prop-1-yn-1-yl)phthalazin-1(2H)-one]	< 0.05
CC#Cc1ccc2c(=O)[nH]nc(Cc3ccc(F)c(C(=O)NC(C)c4nnc(C(F)(F)F)o4)c3)c2c1 (stereo not drawn) [Example 200, 2-Fluoro-5-((4-oxo-7-(prop-1-ynyl)-3,4-dihydrophthalazin-1-yl)methyl)-N-(1-(5-(trifluoromethyl)-1,3,4-oxadiazol-2-yl)ethyl)benzamide]	> 2
CC#Cc1ccc2c(=O)[nH]nc(Cc3ccc(F)c(C(=O)N(C)Cc4nnc(C(F)(F)F)o4)c3)c2c1 [Example 202, 2-Fluoro-N-methyl-5-((4-oxo-7-(prop-1-ynyl)-3,4-dihydrophthalazin-1-yl)methyl)-N-((5-(trifluoromethyl)-1,3,4-oxadiazol-2-yl)methyl)benzamide]	0.1 to 0.5
